This is an account of results in patent US6682908B1, “Mouse growth hormone secretagogue receptor” (Merck & Co., Inc., priority 1998, dated 2004).

The target of the test is T1, mouse GHS-R (Mus musculus, UniProt Q99P50).
T1 construct: the complete and contiguous open reading frame of mGHS-R; expressed in transfected cells; host or cells: 293-AEQ17 (aequorin-expressing reporter cell line), transiently transfected with pcDNA-3/mouse GHS-R
Put plainly: aequorin bioluminescence assay of mouse GHS-R expressed in 293-AEQ17 cells. Type of test: cell-based. The conditions noted are these: expression of the complete and contiguous open reading frame of mGHS-R; aequorin biolumenescence assay. On the procedure:
The mouse isoform of the previously identified GHS-R was cloned from two genomic DNA libraries for the generation of a GHS-R knock-out mouse.
The cells were harvested, washed once in ECB medium and resuspended to 500,000 cells/ml. One hundred (100) […] of cell suspension (corresponding to 5×10^4 cells) was then injected into each well of a 96-well microtiter test plate, and the integrated light emission was recorded over 30 seconds, in 0.5 second units. Twenty (20) μl of lysis buffer (0.1% final Triton X-100 concentration) was then injected and the integrated light emission recorded over 10 seconds, in 0.5 second units. The “fractional response” values for each well were calculated by taking the ratio of the integrated response to the initial challenge to the total integrated luminescence including the Triton X-100 lysis response. Data were analyzed using GraphPad Prism software V.2.0 (GraphPad Software, San Diego, Calif.).

T1 sequence (Q99P50 whole entry): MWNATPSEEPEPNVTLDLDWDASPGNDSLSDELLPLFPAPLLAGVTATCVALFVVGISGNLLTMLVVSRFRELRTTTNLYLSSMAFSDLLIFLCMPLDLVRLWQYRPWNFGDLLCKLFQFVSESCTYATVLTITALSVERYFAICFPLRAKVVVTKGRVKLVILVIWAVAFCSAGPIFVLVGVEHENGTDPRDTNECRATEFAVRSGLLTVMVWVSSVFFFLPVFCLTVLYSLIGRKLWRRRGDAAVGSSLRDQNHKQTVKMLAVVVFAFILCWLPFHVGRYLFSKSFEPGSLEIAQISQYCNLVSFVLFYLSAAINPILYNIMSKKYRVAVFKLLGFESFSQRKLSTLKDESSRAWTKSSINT

With `CC(C)(N)C(=O)N[C@H](COCc1ccccc1)C(=O)N1CCC2(CC1)CN(S(C)(=O)=O)c1ccccc12` [MK-0677], the “functional activation of mGHS-R” value is listed as “functionally activated”.
The result for GHRP-6 reads “functionally activated”.
